According to patent US20100008965A1, “BIOCOMPATIBLE MEDICAL PRODUCTS HAVING ENHANCED ANTI-THROMBOGENIC PROPERTIES” (priority 2008, published 2010):

Legend:
HCAEC [1] = experiment: HCAEC cell binding assay to immobilized fibronectin polypeptides (crystal violet); format: cell-based, human; settings: immobilized peptide, 8 h, on average
Experimental: Human coronary artery endothelial cell (HCAEC) and human umbilical vein endothelial cell (HUVEC) primary human cells were obtained (Cambrex Corporation, East Rutherford, N.J.) and maintained according to the manufacturer's instructions at 37° C. and 5% CO2. HCAEC were grown in microvascular endothelial cell medium (EBM-2 MV, Cambrex) supplemented with 5% fetal bovine serum, 0.1% human epidermal growth factor, 0.04% hydrocortisone, 0.1% vascular endothelial growth factor, 0.4% human fibroblast growth factor-B, 0.1% R^3-insulin-like growth factor-1, 0.1% ascorbic acid, and 0.1% gentamicin and amphotericin-B (GA-1000). HUVEC were grown in endothelial cell medium (EBM, Cambrex) supplemented with 2% fetal bovine serum, 0.4% bovine brain extract, 0.1% human epidermal growth factor, 0.1% hydrocortisone, and 0.1% gentamicin and amphotericin-B (GA-1000). HCAEC and HUVEC were subcultured at 90-95% confluence using 0.05% trypsin-EDTA (Invitrogen, Carlsbad, Calif.) and used for experiments between passages 3-7 (HUVEC) or 5-11 (HCAEC).
HCAEC or HUVEC cell binding assays to immobilized recombinant fibronectin polypeptides were performed in order to ascertain which polypeptide(s) maximally support(s) alpha-4 integrin-mediated cell adhesion. Connecting Segment-1 (SEQ ID NO:1), EILDV (SEQ ID NO:2), RGDS (SEQ ID NO:3) (positive control), RGES (SEQ ID NO:4) (negative control), and EILEVPST (SEQ ID NO:5) (negative control) and were immobilized by drying overnight at room temperature in Immobilizer™ Amino 96-well microplates (Nalge Nunc International, Rochester, N.Y.). RGES, EILDV, and EILEVPST were incubated at a molar equivalent concentration equal to 200 μg RGDS per well. CS-1 was incubated at 50 μg/well. On a molar basis per well, this equates to approximately twenty-fold less CS-1 relative to RGDS. […] Cells were manually counted, and their concentration adjusted to yield a total cell population of 5×10^4 cells/well. […] Spectrometric absorbance values were read at 562 nm at room temperature using a ThermoMax microplate reader (Molecular Devices Corporation, Sunnyvale, Calif.).

HCAEC [2] = experiment: alpha-4 integrin function blocking cell binding assay, HCAEC; format: cell-based, human; settings: 0.5 μg antibody per 5×10^4 cells, 8 h; CS-1 p<0.05
Experimental: To verify that HCAEC or HUVEC adhesion to immobilized CS-1 polypeptides is specifically mediated via alpha-4-containing integrin heterodimers, alpha-4 integrin function blocking cell binding assays were performed. RGDS, EILEVPST, and CS-1 polypeptides were immobilized in Immobilizer™ Amino 96-well microplates. Microplate wells were prepared as described above. Trypsinized HCAEC or HUVEC suspensions were manually counted, aliquoted into two groups, and incubated for one hour on ice with one of the following antibodies at a concentration of 0.5 μg antibody per 5×10^4 cells: (a) mouse monoclonal IgG1 anti-human alpha-4-integrin (CD49d, clone P1H4) (Chemicon), or (b) mouse monoclonal IgG1 anti-human isotype-matched control (R&D Systems). Next, 5×10^4 cells suspended in their respective basal medium were added to wells containing immobilized peptide polypeptides and incubated for eight hours at 37° C. and a 5% CO2 atmosphere. Adherent cells were analyzed via crystal violet staining as described previously.
To differentiate whether HCAEC and HUVEC adhere to CS-1 peptides via an alpha-4 integrin-specific interaction, HCAEC and HUVEC adhesion assays to CS-1, RGDS, and EILEVPST peptides were performed following one hour endothelial cell incubations with either an alpha-4 integrin function blocking antibody or an IgG isotype-matched control antibody. The EILEVPST peptide served as the negative control cell adhesion peptide. The RGDS peptide served as an additional control. Endothelial cell adhesion to RGDS is primarily mediated by alpha-5-beta-1 integrins. Therefore, alpha-4 integrin function blocking should not have a significant effect on adhesion to RGDS. Thus, specificity of HCAEC and HUVEC binding to CS-1 via alpha-4 integrins could be tested.

## CS-1: full-length 25 amino acid polypeptide, first 25 amino acid sequence of the fibronectin type IIICS domain (DELPQLVTLPHPNLHGPEILDVPST; Homo sapien)
HCAEC [1]
  more of the total HCAEC population adhered relative to RGES: about 20%
HCAEC [2]
  difference in HCAEC adhesion between IgG isotype control and alpha-4 integrin blocking antibody treated cells: A statistical difference was achieved
